Data as given in article PMC7997578, “Design, Synthesis, Dynamic Docking, Biochemical Characterization, and in Vivo Pharmacokinetics Studies of Novel Topoisomerase II Poisons with Promising Antiproliferative Activity” (Journal of Medicinal Chemistry, 2020).
Converted amounts (≈) assume the structure as drawn. Like-named read-outs stand apart in the source and are kept apart here.

What was measured:
[1] = aqueous thermodynamic solubility; type: physicochemical; settings: PBS pH 7.4, 24 h, 25°C
Protocol: (§1) 3. Aqueous t herm odynam ic solu bili ty
(§2) The thermodynamic solubility of 3f was determined by addition of Phosphate Buffered Saline (PBS) at pH 7. 4 to an exces s of solid compound.
(§3) The assay was performed by incubation of an aliquot of 2. 5mg of test compound in 500µL of PBS at pH 7. 4. The suspension was shaken at 300 RPM for 24h at 25°C. At the end of the incubation period, the saturated solution was filtered and analyzed by UPLC/MS for the quantification of dissolved compound (in µM) by UV at a specific wavelength ( λmax of the test compound). The analyses were performed on a Waters ACQUITY UPLC/MS SQD system equipped with an ESI ion source. The analyses were run on an ACQUITY UPLC BEH C 18 column (50x2. 1mmI D, particle size 1. 7µm) with a VanGuard BEH C 18 pr e-column (5x2. 1mmID, particle size 1. 7µm), using H 2O + 0. 1% HCOOH (A) and CH 3CN + 0. 1% HCOOH (B) as mobile phase.
(§4) 4. Plasm a Protei n Bindi ng
(§5) The assay was conducted in triplicate in human and mouse plasma. An appropriate volume of plasma was spiked with a known amount of 10mM DMSO stock solution of the test compound, thus reaching the incubation concentrations of 0. 5, 1 and 5 µM. […] At this point, the supernatants were ready for injections in the UPLC -MS/ MS system. […] Plasma protein binding was calculated applying appropriate corrections to compensate for dilutions during sampling.

[2] = system: DU145 cells; assay: cell viability MTT assay, DU145; type: cell-based, human; settings: mean ± SD of two experiments, read-out: DU145 antiproliferative activity IC50
Protocol: The antiproliferative activity of all compounds was evaluated in (i) DU145, an androgen-independent prostate cancer cell line; (ii) HeLa, a cervical cancer cell line; and (iii) A549, a lung adenocarcinoma cell line (Table 1). […] Undoubtedly, this preliminary cytotoxicity data will need further characterization, also in relation to the in vitro activity of these compounds.
Human cancer cell lines A549 (lung adenocarcinoma, ATCC CCL-185), DU-145 (androgen-independent prostate cancer, ATCC HTB-81), and HeLa (cervical carcinoma, ATCC CCL-2) were obtained from ATCC. Cells were routinely grown in minimal essential medium containing Eagle’s salts and L-glutamine supplemented with 10% heat-inactivated FBS in a humidified atmosphere of 5% CO2 at 37 °C. To assess the antiproliferative activity of the compounds, cells were seeded at a density of 2500 cells/well (HeLa) or 5000 cells/well (A549, DU-145) in 96-well plates, and cell viability was measured using the MTT assay as described previously.[39] Values are reported as the mean ± SD of two independent experiments.

[3] = plasma protein binding (rapid equilibrium dialysis), human; type: in vitro ADME; settings: pH 7.4
Protocol: as §1, §2, §3, §4, §5

[4] = target: T1, topoII/DNA cleavage complex (Homo sapiens, UniProt P11388); assay: topoisomerase II cleavage complex assay; type: biochemical
T1 construct: purchased Inspiralis
T1 sequence (P11388 whole entry, one chain of several): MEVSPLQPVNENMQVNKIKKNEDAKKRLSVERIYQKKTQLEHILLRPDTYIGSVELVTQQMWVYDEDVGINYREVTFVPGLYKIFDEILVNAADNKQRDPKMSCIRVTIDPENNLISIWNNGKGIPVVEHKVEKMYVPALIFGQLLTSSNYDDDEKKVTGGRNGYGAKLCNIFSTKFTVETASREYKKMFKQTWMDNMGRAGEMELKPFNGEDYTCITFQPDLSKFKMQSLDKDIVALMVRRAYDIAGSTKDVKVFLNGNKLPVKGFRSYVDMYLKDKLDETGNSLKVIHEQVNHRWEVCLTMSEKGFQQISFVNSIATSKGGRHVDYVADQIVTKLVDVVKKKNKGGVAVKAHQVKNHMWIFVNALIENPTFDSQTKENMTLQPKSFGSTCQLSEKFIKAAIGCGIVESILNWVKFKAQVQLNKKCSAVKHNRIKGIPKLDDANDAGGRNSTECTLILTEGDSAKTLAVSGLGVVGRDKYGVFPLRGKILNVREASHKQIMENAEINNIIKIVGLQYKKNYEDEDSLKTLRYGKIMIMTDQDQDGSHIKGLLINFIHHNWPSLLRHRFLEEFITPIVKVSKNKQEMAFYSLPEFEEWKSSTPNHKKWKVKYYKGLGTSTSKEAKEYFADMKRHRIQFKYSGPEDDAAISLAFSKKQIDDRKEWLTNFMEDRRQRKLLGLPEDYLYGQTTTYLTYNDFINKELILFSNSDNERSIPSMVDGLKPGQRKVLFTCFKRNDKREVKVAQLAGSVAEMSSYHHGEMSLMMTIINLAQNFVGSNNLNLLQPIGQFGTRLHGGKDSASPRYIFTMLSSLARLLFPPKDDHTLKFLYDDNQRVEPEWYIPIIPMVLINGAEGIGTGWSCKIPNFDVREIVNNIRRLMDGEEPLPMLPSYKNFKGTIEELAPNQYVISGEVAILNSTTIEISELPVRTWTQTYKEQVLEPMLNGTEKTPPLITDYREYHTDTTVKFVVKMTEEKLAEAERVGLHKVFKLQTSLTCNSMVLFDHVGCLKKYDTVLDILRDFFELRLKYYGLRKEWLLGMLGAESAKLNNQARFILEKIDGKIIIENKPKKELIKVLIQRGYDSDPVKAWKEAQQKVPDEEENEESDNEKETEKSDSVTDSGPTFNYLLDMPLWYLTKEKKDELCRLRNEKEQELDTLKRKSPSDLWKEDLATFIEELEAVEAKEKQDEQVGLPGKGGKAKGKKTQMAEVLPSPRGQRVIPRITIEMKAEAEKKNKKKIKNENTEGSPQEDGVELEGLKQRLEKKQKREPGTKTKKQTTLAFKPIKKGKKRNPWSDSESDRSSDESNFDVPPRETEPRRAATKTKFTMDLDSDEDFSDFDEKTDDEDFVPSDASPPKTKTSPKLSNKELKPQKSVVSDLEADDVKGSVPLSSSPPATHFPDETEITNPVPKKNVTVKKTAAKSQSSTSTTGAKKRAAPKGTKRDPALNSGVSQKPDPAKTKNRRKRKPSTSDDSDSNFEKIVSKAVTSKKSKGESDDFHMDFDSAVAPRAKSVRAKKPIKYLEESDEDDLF
Protocol: Figure 2 Poison activity of the hybrid compounds. Agarose gel electrophoresis of plasmid DNA incubated in the absence (no enzyme) or presence of 1 U of topoII containing either 1% DMSO as control vehicle (no enzyme and topoII lanes) or 200 μM compound. Labels are shown above each lane. Numbers at the bottom correspond to the normalized intensity of the linear form (FIII). Plasmid forms are indicated by the arrow-points on the right: supercoiled (FI), nicked (FII), and linear (FIII).
Poison activity of the compounds was evaluated using a cleavage complex assay (Inspiralis) as described previously.[60] Compounds were tested at a fixed concentration of 200 μM in the presence of 1 U of topoisomerase II and 500 ng of […] plasmid at 37 °C for 6 min. Final DMSO concentration in the assay was 1%. Reaction products were subjected to electrophoresis in a 1% agarose gel, stained with SYBR Safe DNA stain, and DNA bands were visualized and quantified as described above.

[5] = target: T2, human topoIIα (Homo sapiens, UniProt P11388); assay: topoII decatenation assay (Inspiralis); type: biochemical
T2 construct: purchased Inspiralis
T2 sequence (P11388 whole entry): as the sequence (P11388 whole entry, one chain of several) above
Protocol: We measured the inhibitor activity of our new compounds against human topoIIα, using a topoII decatenation assay (Table 1).
The activity of topoIIα was measured using a decatenation assay (Inspiralis) following the manufacturer’s instructions. Compounds were dissolved in DMSO and used at a concentration ranging from 200 to 1 μM. Final DMSO concentration in the assay was ≤1%. Reaction mixtures were incubated for 30 min at 37 °C and terminated with STEB buffer (40% (w/v) sucrose, 100 mM Tris-HCl, pH 8, 1 mM EDTA, 0.5 mg/mL bromophenol blue). Reaction products were resolved by electrophoresis in 1% agarose gels containing SYBR Safe DNA stain (Invitrogen), scanned, and quantified using the ChemiDoc system (BioRad). IC50 values were obtained with GraphPad Prism software (version 5.03) using the band intensities of the dose–response gels. Values are reported as the mean ± SD of two independent experiments.

O=C(Nc1cccc(OC(F)(F)F)c1)c1c(O)n(-c2ccccc2)c(=S)n(-c2ccccc2)c1=O [3f, 6-Hydroxy-4-oxo-1,3-diphenyl-2-thioxo-N-(3-(trifluoromethoxy)phenyl)-1,2,3,4-tetrahydropyrimidine-5-carboxamide]
solubility thermodynamic at 24 h [1]: 30 µM (≈ 15 µg/mL)
IC50 ([2]; DU145 prostate cancer cells): 4.7 ± 0.1 µM
IC50 ([2]; Homo sapiens, DU-145, DU145 prostate cancer cells): < 5 µM
fraction unbound at 3 h [3]: < 0.01
mode of action in cleavage complex formation assay ([4]; 200 μM compound, 1 U topoII, plasmid DNA): confirmed to be poisons
poison efficacy, fold better than ARN16267 ([4]; 200 μM concentration, linear form (FIII) intensity): about 1.5 fold
IC50 ([5]; human topoIIα decatenation assay, mean ± SD of two independent experiments, read-out: IC50): 7.3 ± 1.5 µM
fold increased activity compared to ARN16267 ([5]; topoIIα decatenation IC50 versus ARN16267): 2 fold
